The results in this text go back to patent US20230056189A1, “COMPOSITIONS AND METHODS FOR TREATMENT OF PATHOLOGIC PAIN ASSOCIATED WITH MALIGNANT GROWTH DISORDER” (Duke University, priority 2020, published 2023).

Bounds are passed on as bounds.

The subject of test [1] is neuronal [Cl-]i. The test can be described thus: Clomeleon [Cl-]i measurement in rat primary cortical neurons. It counts as cell-based. The conditions noted are these: VU0240551 2.5 μM, both vehicle-treated and KP-treated rat neurons. On the procedure: (§1) Chloride imaging of primary cultured cortical neurons was conducted as previously described (Kuner and Augustine, 2000, Neuron 27: 447-459; Liedtke et al., 2013, Small (Weinheim an der Bergstrasse, Germany) 9: 1066-1075; Yeo et al., 2009, J Neurosci 29: 14652-14662). A Clomeleon expression plasmid was transfected into primary cortical neurons by electroporation (Amaxa Nucleofector Device). Transfected neurons were verified by yellow fluorescent protein (YFP) fluorescence, and ratiometric images (excitation at λ=434 nm, dual emission at λ=485 and 535 nm; for resting chloride, six stable frames at […] were captured, which were averaged) were acquired using RATIOTOOL program. Calibration of Clomeleon signals (535 nm/485 nm emission ratio) was performed by using tributyltin-nigericin to establish a standard curve, which was then normalized for measured intraneuronal pH to take into account the pH sensitivity of Clomeleon.
Results represent the average mRNA expression of multiple independent neuronal cultures [n=12 (control), n=4 (0.1 μM KP), n=3 (0.2 μM KP), n=10 (0.5 μM KP). *p<0.05, **p<0.01, ****p<0.0001, one-way ANOVA].
It is shown that KP enhanced Kcc2 gene expression and KCC2 chloride extrusion function with rather rapid kinetics within 3 h time frame.

Test [2] has as its system Kcc2 promoter. The test can be described thus: Primary screen: luciferase (LUC) activity in primary cortical neurons from Kcc2-LUC transgenic mice. It counts as cell-based, mouse. The conditions noted are these: rank score within compound library; compounds 100 nM for 48 h. As to the method: Cell suspension was plated at a density of 1×10^6 cells/ml onto 24-well tissue-culture dishes coated with poly-d-lysine.
LUC activity was then determined for each compound. Culture supernatant was removed and cells were lysed with 150 μl lysis buffer (Targeting Systems CA, USA cat. CLR1). LUC activity was measured with a RedLuciferase Assay kit (Targeting Systems cat. FLAR) according to the manufacturer's instructions. A Veritas microplate luminometer was used to measure luminescence; for each treatment triplicates of 40 μl cell lysates (from each 24-well tissue-culture dish) were used and 25 μl substrate was injected per well. […] Relative Light units (RLU) for each treatment was derived from Light Units (compound treatment)/vehicle treatment (0.5% DMSO).
The primary screen encompassed three levels of LUC measurements. […] Each compound was ranked based on composite scores from primary and secondary screening.

The subject of test [3] is Kcc2 mRNA. The test can be described thus: Secondary screen: Kcc2 RT-qPCR in cultured primary cortical neurons. The test is classed as cell-based, mouse. The conditions noted are these: rank score within compound library. On the procedure:
The primary screen encompassed three levels of LUC measurements. The first level of screening yielded a total of 137 compounds with cut-off RLU>125% LUC activity. These 137 compounds were subject to second round of screening, which was carried out in duplicate independent assays to yield the top 103 compounds sorted for highest RLU. The 103 compounds were then subjected to a third round of screening carried out in duplicate independent assays to yield the top 40 compounds which were again ranked. The best 22 of these 40 compounds (ranked for highest RLU activity) were subjected to secondary screening: cultured neurons were treated with the 22 compounds; RT-qPCR and Clomeleon imaging methodologies (Yeo et al., 2009, J Neurosci 29: 14652-14662) were used to determine effects of compounds on Kcc2 mRNA expression and [Cl-]i, respectively. […]
Total RNA was isolated from cultured cell samples using Directzol RNA miniprep kit (ZymoResearch). […] Gene expression was assessed by quantitative real-time PCR using 2×SYBR Green Master Mix (Qiagen) and a three-step cycling protocol (anneal at 60° C./elongate at 72° C., denature at 95° C.). […] The amount of target messenger RNA (mRNA) in the experimental group relative to that in the control was determined from the resulting fluorescence and threshold values (Ct) using the […] method. […] was used as a housekeeping gene. […]
(In general: Real-time PCR tracks product formation cycle by cycle.)

The subject of test [4] is intracellular chloride ([Cl-]i) of primary cortical neurons. The test can be described thus: Secondary screen: Clomeleon chloride imaging in cultured primary cortical neurons. It counts as cell-based, mouse. The conditions noted are these: for Chloride [Cl—]i, value left of '=>': starting value before the arrow; for Chloride [Cl—]i, value right of '=>': value after the arrow (with compound). On the procedure:
(§2) The primary screen encompassed three levels of LUC measurements. The first level of screening yielded a total of 137 compounds with cut-off RLU>125% LUC activity. These 137 compounds were subject to second round of screening, which was carried out in duplicate independent assays to yield the top 103 compounds sorted for highest RLU. The 103 compounds were then subjected to a third round of screening carried out in duplicate independent assays to yield the top 40 compounds which were again ranked. The best 22 of these 40 compounds (ranked for highest RLU activity) were subjected to secondary screening: cultured neurons were treated with the 22 compounds; RT-qPCR and Clomeleon imaging methodologies (Yeo et al., 2009, J Neurosci 29: 14652-14662) were used to determine effects of compounds on Kcc2 mRNA expression and [Cl-]i, respectively. Each compound was ranked based on composite scores from primary and secondary screening.
as §1
(§3) 1057 compounds were screened and contained in two NCI libraries: NCI compound libraries Natural Products II and Mechanistic Diversity Set II (FIG. 1, Table 2), related to inhibition of growth of malignantly transformed cells. […] Iterative screening followed by measurements of Kcc2 mRNA (RT-qPCR) and intracellular chloride ([Cl-]i) (clomeleon chloride indicator protein) led to decreasing numbers of re confirmed hits, which eventually identified four (4) “winner” compounds listed in the bottom panel of FIG. 1.

In test [5] the test system is Kcc2 gene expression. Kind of test: Composite ranking from primary and secondary screening. The conditions noted are these: for Total Score: sum of Luciferase, RT-qPCR and Clomeleon scores; for Top 2 Hits: winner = top 2 of each library by total score. The test is classed as cell-based, mouse. As to the method:
as §2, §3

The subject of test [6] is A375. The test can be described thus: MTT cell viability assay. The settings on record: KP 100 nM and/or paclitaxel 1 nM or 10 nM, 72 hours. The test is classed as cell-based. As to the method: (§4) Two commonly used breast cancer cell lines (MCF7 and MDA MB-231) and one melanoma cell line (A375) were used in this study. 100 nM Kenpaullone (KP) and/or 1 nM or 10 nM paclitaxel (Taxol) were administered to the cell lines to test their impact on cell viability. Each bar represents an average of 6 experiments, and error bars represent SEM. Cell line maintenance and MTT cell viability assay were done according to Xiao et al. (2018, BMC Cancer, 18(1): 675). Cell viability was assessed after 72 hours.

Test [7] has as its system MCF7. The test can be described thus: MTT cell viability assay. It counts as cell-based. The settings on record: KP 100 nM and/or paclitaxel 1 nM or 10 nM, 72 hours. As to the method:
as §4
Background: Tetrazolium dyes change colour on reduction, which living cells bring about.

The test system of test [8] is MDA MB-231. The test can be described thus: MTT cell viability assay. The conditions noted are these: KP 100 nM and/or paclitaxel 1 nM or 10 nM, 72 hours. The test is classed as cell-based. As to the method:
as §4

Take `Cc1csc(NC(=O)CSc2ccc(-c3ccccc3)nn2)n1` [VU0240551]: the “[Cl-]i with add-on KCC2-transport blocker” value in test [1] is listed as at least 120 mM.
On to `CC(=O)C1CCCC(=O)/C=C/C(=O)O1` (stereo not shown) [NSC180515, 2-Acetyl-2,3,4,5-tetrahydrooxonine-6,9-dione], for which the “Luciferase Score (triplicates)” value in test [2] was 4. In addition, the “RT-qPCR Score (triplicates)” value in test [3] was 1. In test [4], the “Chloride reduction (%)” value came out at 32%; the “Chloride [Cl—]i, value left of '=>'” value was 68 mM; the “Chloride [Cl—]i, value right of '=>'” value amounted to 22 mM. Also, the “Clomeleon Score (duplicates)” value in test [4] (rank score within compound library) is given as 1. In test [5], the “Total Score” value was 6 and the “Top 2 Hits” value is “winner”.
For `N=C1N=CN=C2C([C@@H]3O[C@H](CO)[C@@H](O)[C@H]3O)=CN=C12` [9-Deazaadenosine], in test [4], the “Chloride [Cl—]i, value left of '=>'” value worked out at 82 mM and the “Chloride [Cl—]i, value right of '=>'” value is recorded as 40 mM. The “Total Score” value in test [5] stood at 11.
In the case of `CC(=O)O[C@H]1C(=O)[C@@]2(C)[C@H]([C@H](OC(=O)c3ccccc3)[C@]3(O)C[C@H](OC(=O)[C@H](O)[C@@H](NC(=O)c4ccccc4)c4ccccc4)C(C)=C1C3(C)C)[C@]1(OC(C)=O)CO[C@@H]1C[C@@H]2O` [paclitaxel], the “cell viability (MTT)” value in test [6], in test [7] and in test [8] was “sensitive” in each case.
Turning to `C[C@@]12C(=O)OC(=O)[C@]1(C)[C@H]1CC[C@@H]2O1` [cantharidine], in test [4], the “Chloride [Cl—]i, value left of '=>'” value is reported as 68 mM and the “Chloride [Cl—]i, value right of '=>'” value stood at 33 mM.
For the compound `Cc1ccc(NC(=O)c2cccc([N+](=O)[O-])c2O)c(C)c1` [NSC79456, n-(2,4-Dimethylphenyl)-2-hydroxy-3-nitrobenzamide], in test [4], the “Chloride [Cl—]i, value left of '=>'” value came to 74 mM and the “Chloride [Cl—]i, value right of '=>'” value amounted to 24 mM. Moreover, in test [5], the “Total Score” value was determined as 5 and the “Top 2 Hits” value is given as “winner”.
Regarding `COc1cc2c3c(c4ccc(OC)c(OC)c4c2cc1OC)CN1CCC[C@H]1C3` [tylocrebrine], in test [4], the “Chloride [Cl—]i, value left of '=>'” value amounted to 75 mM and the “Chloride [Cl—]i, value right of '=>'” value turned out to be 39 mM.
With `Cc1cc(-c2nc3ccccc3s2)ccc1N` [4-(1,3-Benzothiazol-2-yl)-2-methylaniline], in test [4], the “Chloride [Cl—]i, value left of '=>'” value was 82 mM and the “Chloride [Cl—]i, value right of '=>'” value is reported as 38 mM. Further, in test [5], the “Total Score” value is listed as 13.
In the case of `CC(=O)Nc1ccc(-c2nc3ccccc3s2)cc1` [NSC33006, N-[4-(1,3-benzothiazol-2-yl)phenyl]acetamide], in test [4], the “Chloride [Cl—]i, value left of '=>'” value came to 74 mM and the “Chloride [Cl—]i, value right of '=>'” value was 28 mM. Further, in test [5], the “Total Score” value was determined as 5 and the “Top 2 Hits” value is on record as “winner”.
For the compound `COc1ccc(C[C@H]2NC[C@H](O)[C@H]2OC(C)=O)cc1` [anisomycine], in test [4], the “Chloride [Cl—]i, value left of '=>'” value amounted to 75 mM and the “Chloride [Cl—]i, value right of '=>'” value is 43 mM.
Regarding `CC1(C)CCC[C@]2(C)C3=C(CC[C@@H]12)C(=O)OC3` [confertifoline], in test [4], the “Chloride [Cl—]i, value left of '=>'” value is on record as 75 mM and the “Chloride [Cl—]i, value right of '=>'” value amounted to 42 mM.
For `CC(O)CCC(=O)c1ccoc1` (stereo not shown) [4-Ipomeanol], in test [4], the “Chloride [Cl—]i, value left of '=>'” value is 74 mM and the “Chloride [Cl—]i, value right of '=>'” value was 32 mM. In test [5], the “Total Score” value amounted to 8.
